Reference: article PMC6757289, “Design and Characterization of SGK3-PROTAC1, an Isoform Specific SGK3 Kinase PROTAC Degrader” (ACS Chemical Biology, 2019)

Target: T1, SGK1 (Homo sapiens, UniProt O00141)
T1 sequence (O00141 1-431): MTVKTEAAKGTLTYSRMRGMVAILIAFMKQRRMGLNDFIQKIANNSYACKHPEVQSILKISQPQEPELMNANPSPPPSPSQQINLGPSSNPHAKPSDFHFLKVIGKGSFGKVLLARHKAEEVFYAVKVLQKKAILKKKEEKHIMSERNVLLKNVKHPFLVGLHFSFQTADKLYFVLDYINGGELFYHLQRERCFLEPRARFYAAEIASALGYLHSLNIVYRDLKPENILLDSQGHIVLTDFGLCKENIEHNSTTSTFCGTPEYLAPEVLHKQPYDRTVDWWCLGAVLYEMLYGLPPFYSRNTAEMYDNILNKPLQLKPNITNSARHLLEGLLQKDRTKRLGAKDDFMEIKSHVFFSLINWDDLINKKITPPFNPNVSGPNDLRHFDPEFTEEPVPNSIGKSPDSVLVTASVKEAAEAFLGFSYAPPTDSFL
Experiment: SGK1 degradation in JIMT1 cells, immunoblot
Assay type: cell-based
Settings: JIMT1, up to 3 μM
Procedure: Figure 3 Characterization of cellular activities of SGK3-PROTAC1 and cisSGK3-PROTAC1. (A) HEK293 cells were first treated for 8 h with 0.03–3 μM SGK3-PROTAC1 and cisSGK3-PROTAC1. One hour before lysis, cells were treated with 3 μM AZD5363. Lysates were subjected to immunoblot analysis with the indicated antibodies. […] Lysates were subjected to immunoblot analysis with the indicated antibodies. (C) HEK293 cells were treated for up to 48 h with SGK3-PROTAC1 (0.3 μM), and lysates were analyzed by immunoblot analysis using the indicated antibodies. (D) HEK293 cells were treated for 24 h with SGK3-PROTAC1. Cells were washed three times with DMEM to wash out the compound, and recovery of SGK3 expression protein was analyzed by immunoblot analysis. (E–G) As in A except that CAMA-1 (E), ZR-75-1 (F), and JIMT-1 (G) cells were employed rather than HEK293 cells. […]
All cell treatments were carried out as described in figure legends, to a final DMSO concentration of 0.1% (v/v). Lysates were quantified. […] Lysate concentration was quantified by Bradford Assay, and 10 μg of lysate was loaded in the LDS sample buffer for SDS-PAGE electrophoresis on Novex 4–12% Bis–Tris gels. […] The signal was produced with near-infrared secondary antibodies and detected using a Licor Biosciences Odyssey System, and the signal was quantified in Image Studio Lite.

## Cc1ccc(F)c(S(=O)(=O)Nc2ccc(-c3nc(OC[C@H]4CN(CCCCCCOCCOCCOCC(=O)N[C@H](C(=O)N5C[C@H](O)C[C@H]5C(=O)NCc5ccc(-c6scnc6C)cc5)C(C)(C)C)CCO4)c4cn[nH]c4n3)cc2)c1 [SGK3-PROTAC1]
  degradation of SGK1: failed to induce degradation of SGK1
